Results reported in patent US12390470B2, “1-methylxanthine-based bioactive composition and method of use thereof” (Ingenious Ingredients, LP, priority 2021, dated 2025).

How the values were obtained:
male Swiss Albino mice [1] = test: Cook's pole climbing test, scopolamine-induced amnesia; type: in vivo
Procedure: Behavioral studies were conducted in mice to examine the learning and memory ability by using Cook's pole and Passive shock avoidance test.
(§1) Twenty-four 8-week-old male Swiss Albino mice were housed in an animal room at a constant temperature (22±3° C.) and humidity (30%-70%) under a 12:12 h light-dark cycle with standard laboratory diet (Purina 5L79, Rat and Mouse 18% protein; PMI Nutrition International, Brentwood, MO, USA). Distilled water was provided ad libitum. All animal experiments were reviewed and approved by the Institutional Animal Ethical Committee (IAEC) of Radiant Research Services Pvt. Ltd (Bangalore, India). All research was conducted in accordance with the guidelines of the committee for the purpose of control and supervision of experiments on animals.
After one week of acclimation, the animals were randomly divided by body weight into three groups (n=8 per group in each test) for oral treatment once a day, at approximately same time each day (±1 hour), for 7 consecutive days: (1) vehicle control or (2) 1-methylxanthine or (3) 1-methylxanthine plus paraxanthine. The dose administered to the mice was calculated using US Food and Drug Administration for human equivalence doses (HED), assuming a human weight of 60 kg. The following HED was used in this study: 100 mg 1-methylxanthine (Ingenious Ingredients, L.P Lewisville, TX, USA; mouse dose: 20.5 mg/kg bw/day), or 100 mg 1-methylxanthine (Ingenious Ingredients, L.P Lewisville, TX, USA; mouse dose: 20.5 mg/kg bw/day) plus 100 mg paraxanthine (ENFINITY™, Ingenious Ingredients, L.P Lewisville, TX, USA; mouse dose: 20.5 mg/kg bw/day). 0.5% Carboxy Methyl Cellulose sodium was used as vehicle and the test item formulations were prepared daily. […] Food intake was monitored daily while water intake was ad libitum.
Mice were trained in such a way that the animal had to climb the pole (shock free zone) within 30 seconds to avoid a shock. […] At particular intervals, 20 trials were given for each animal and average of the shock avoidance and mistakes were recorded. […]

male Swiss Albino mice [2] = test: Treadmill endurance test; type: in vivo
Procedure: as §1
After one week of acclimation, the animals were randomly divided by body weight into three groups (n=8 per group in each test) for oral treatment once a day, at approximately same time each day (±1 hour), for 28 consecutive days: (1) vehicle control or (2) 1-methylxanthine or (3) 1-methylxanthine plus paraxanthine. The dose administered to the mice was calculated using US Food and Drug Administration for human equivalence doses (HED), assuming a human weight of 60 kg. The following HED was used in this study: 100 mg 1-methylxanthine (Ingenious Ingredients, L.P Lewisville, TX, USA; mouse dose: 20.5 mg/kg bw/day), or 100 mg 1-methylxanthine (Ingenious Ingredients, L.P Lewisville, TX, USA; mouse dose: 20.5 mg/kg bw/day) plus 100 mg paraxanthine (ENFINITY™, Ingenious Ingredients, L.P Lewisville, TX, USA; mouse dose: 20.5 mg/kg bw/day). 0.5% Carboxy Methyl Cellulose sodium was used as vehicle and the test item formulations were prepared daily. Dosing was conducted via oral gavage using disposable polypropylene syringes with sterilized stainless steel gavage tubes. Food intake was monitored daily while water intake was ad libitum. BW was recorded weekly. […]
On 28th day of each respective treatment, all animals were subjected to a muscle endurance test. […] Distance traveled (cm) was measured as a marker of exercise performance.

participant = test: Concentration by Visual Analog Scale; type: in vivo, human; set-up: Concentration (Visual Analog Scale): scale not given here
Procedure: One participant ingested 200 mg dose of 1-methylxanthine (1-MX) orally with 8 fluid ounces of cold tap water. Concentration was measured by Visual Analog Scale (VAS) at baseline, 30, 60, 90, 120 and 180 minutes after ingestion.

Cn1c(=O)[nH]c2nc[nH]c2c1=O [1-methylxanthine, 1-Methyl-3H-purine-2,6-dione]
Escape latency faster than control (male Swiss Albino mice [1]; Cook's pole): 14.9% | Escape latency, Cook's pole climbing test (male Swiss Albino mice [1]; mice, oral 7 days, scopolamine): 10.13 ± 0.83 s | Overall outcome on amnesia, memory and learning (male Swiss Albino mice [1]; summary of Cook's pole and passive shock avoidance tests): showed reversal of amnesia induced by scopolamine and improved memory and learning | Distance travelled on treadmill (male Swiss Albino mice [2]; baseline): 269.6±33.0 cm | changes in treadmill performance greater than control (male Swiss Albino mice [2]; baseline to day 28): 10.0% | Distance travelled on treadmill (male Swiss Albino mice [2]; day 28, oral 20.5 mg/kg bw/day each, 28 days): 1,641.3±74.6 cm | Concentration (VAS) MEAN (30-180) (participant; Average): 61.2 | Concentration (VAS) MEAN (30-180) (participant; Person one): 54.4 | Concentration (Visual Analog Scale) (participant; Person one, 30 min): 60 | Concentration (Visual Analog Scale) (participant; Person one, 60 min): 61 | Concentration (Visual Analog Scale) (participant; Person one, 90 min): 50 | Concentration (Visual Analog Scale) (participant; Person one, 120 min): 50 | Concentration (Visual Analog Scale) (participant; Person one, 180 min): 51 | Concentration (Visual Analog Scale) (participant; Person one, time 0, 200 mg oral): 50 | Concentration (VAS) MEAN (30-180) (participant; Person two): 68.0 | Concentration (Visual Analog Scale) (participant; Person two, 30 min): 65 | Concentration (Visual Analog Scale) (participant; Person two, 60 min): 65 | Concentration (Visual Analog Scale) (participant; Person two, 90 min): 65 | Concentration (Visual Analog Scale) (participant; Person two, 120 min): 75 | Concentration (Visual Analog Scale) (participant; Person two, 180 min): 70 | Concentration (Visual Analog Scale) (participant; Person two, time 0, 200 mg oral): 65
